Laboratory results from patent US20220062240A1, “METHODS OF TREATING CANCER USING A CLK INHIBITOR” (BioSplice Therapeutics, Inc., priority 2018, published 2022).
Read-outs that look alike come from different tables or passages of the source.

How the values were obtained:
Format in all cases: cell-based
BT-549 = assay: CellTiter-Glo Viability Assay, breast cancer; conditions: Homo sapiens, 96 h; BT-549, breast cancer, four days; read-out: EC50
CAMA1 = assay: CellTiter-Glo Viability Assay, breast cancer; conditions: Homo sapiens, CAMA-1, 96 h; CAMA1, breast cancer, four days; read-out: EC50
DU4475 = assay: CellTiter-Glo Viability Assay, breast cancer; conditions: Homo sapiens, DU-4475, 96 h; DU4475, breast cancer, four days; read-out: EC50
HCC1599 = assay: CellTiter-Glo Viability Assay, breast cancer; conditions: Homo sapiens, 96 h; HCC1599, breast cancer, four days; read-out: EC50
MCF7 = assay: CellTiter-Glo Viability Assay, breast cancer; conditions: Homo sapiens, 96 h; MCF7, breast cancer, four days; read-out: EC50
MDA-MB-231-Luc = assay: CellTiter-Glo Viability Assay, breast cancer; conditions: Homo sapiens, 96 h; MDA-MB-231-Luc, breast cancer, four days; read-out: EC50
T47D = assay: CellTiter-Glo Viability Assay, breast cancer; conditions: Homo sapiens, 96 h, breast cancer, four days, read-out: EC50
ZR-75-1 = assay: CellTiter-Glo Viability Assay, breast cancer; conditions: Homo sapiens, 96 h; ZR-75-1, breast cancer, four days; read-out: EC50
all 50 cell lines = assay: CellTiter-Glo Viability Assay, average across all cell lines; conditions: Homo sapiens; across all 50 cell lines; read-out: average EC50 for inhibition of cancer cell proliferation
In short: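 Proliferation of a multi-tissue human cancer line panel is assessed over four days at 37° C and 5% CO2, seeding 300-3,000 cells/well. Viability is quantified by CellTiter-Glo luminescence, and EC50 values are calculated.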

[1] = system: colorectal cancer (6 cell lines); assay: CellTiter-Glo Viability Assay, colorectal cancer; conditions: Homo sapiens, inhibition of cancer cell proliferation
[2] = system: haematopoietic & lymphoid tumors (13 cell lines); assay: CellTiter-Glo Viability Assay, haematopoietic & lymphoid tumors; conditions: Homo sapiens, inhibition of cancer cell proliferation
[3] = system: liver cancer (3 cell lines); assay: CellTiter-Glo Viability Assay, liver cancer; conditions: Homo sapiens, inhibition of cancer cell proliferation
[4] = system: lung cancer (4 cell lines); assay: CellTiter-Glo Viability Assay, lung cancer; conditions: Homo sapiens, inhibition of cancer cell proliferation
[5] = system: ovarian cancer (4 cell lines); assay: CellTiter-Glo Viability Assay, ovarian cancer; conditions: Homo sapiens, inhibition of cancer cell proliferation
[6] = system: pancreatic cancer (8 cell lines); assay: CellTiter-Glo Viability Assay, pancreatic cancer; conditions: Homo sapiens, inhibition of cancer cell proliferation
[7] = system: prostate cancer (5 cell lines); assay: CellTiter-Glo Viability Assay, prostate cancer; conditions: Homo sapiens

- EC50 (BT-549): 169 nM
- EC50 (CAMA1): 216 nM
- EC50 (DU4475): 123 nM
- EC50 (HCC1599): 91 nM
- EC50 (MCF7): 483 nM
- EC50 (MDA-MB-231-Luc): 188 nM
- EC50 (T47D): 246 nM
- EC50 (ZR-75-1): 177 nM
- EC50 ([1]; HCT-116, HCT116 cell line, read-out: Colorectal cancer, EC50 (μM) HCT116): 0.102 µM
- EC50 ([1]; HT-29, HT29 cell line, read-out: Colorectal cancer, EC50 (μM) HT29): 0.187 µM
- EC50 ([1]; SW-620, SW620 cell line, read-out: Colorectal cancer, EC50 (μM) SW620): 0.067 µM
- EC50 ([1]; DLD-1 cell line, read-out: Colorectal cancer, EC50 (μM) DLD-1): 0.141 µM
- EC50 ([1]; SW48 cell line, read-out: Colorectal cancer, EC50 (μM) SW48): 0.051 µM
- EC50 ([1]; SW480 cell line, read-out: Colorectal cancer, EC50 (μM) SW480): 0.143 µM
- EC50 ([2]; DND41, DND-41 cell line, read-out: Haematopoietic & Lymphoid tumors, EC50 (μM) DND-41): 0.154 µM
- EC50 ([2]; MV4-11, MV-4-11 cell line, read-out: Haematopoietic & Lymphoid tumors, EC50 (μM) MV-4-11): 0.042 µM
- EC50 ([2]; Rec1, REC-1 cell line, read-out: Haematopoietic & Lymphoid tumors, EC50 (μM) REC-1): 0.045 µM
- EC50 ([2]; SU-DHL-4, SUDHL4 cell line, read-out: Haematopoietic & Lymphoid tumors, EC50 (μM) SUDHL4): 0.155 µM
- EC50 ([2]; HL-60 cell line, read-out: Haematopoietic & Lymphoid tumors, EC50 (μM) HL-60): 0.449 µM
- EC50 ([2]; JM1 cell line, read-out: Haematopoietic & Lymphoid tumors, EC50 (μM) JM1): 0.044 µM
- EC50 ([2]; JURKAT, Clone E6-1 cell line, read-out: Haematopoietic & Lymphoid tumors, EC50 (μM) JURKAT, Clone E6-1): 0.333 µM
- EC50 ([2]; JeKo-1 cell line, read-out: Haematopoietic & Lymphoid tumors, EC50 (μM) JeKo-1): 0.046 µM
- EC50 ([2]; KASUMI-1 cell line, read-out: Haematopoietic & Lymphoid tumors, EC50 (μM) KASUMI-1): 0.119 µM
- EC50 ([2]; Loucy cell line, read-out: Haematopoietic & Lymphoid tumors, EC50 (μM) Loucy): 0.142 µM
- EC50 ([2]; MOLT-4 cell line, read-out: Haematopoietic & Lymphoid tumors, EC50 (μM) MOLT-4): 0.162 µM
- EC50 ([2]; TF-1 cell line, read-out: Haematopoietic & Lymphoid tumors, EC50 (μM) TF-1): 0.225 µM
- EC50 ([2]; TOLEDO cell line, read-out: Haematopoietic & Lymphoid tumors, EC50 (μM) TOLEDO): 0.046 µM
- EC50 ([3]; SNU-398, SNU398 cell line, read-out: Liver cancer, EC50 SNU398): 34 nM
- EC50 ([3]; HEPG2 cell line, read-out: Liver cancer, EC50 HEPG2): 130 nM
- EC50 ([3]; PLC/PRF/5 cell line, read-out: Liver cancer, EC50 PLC/PRF/5): 301 nM
- EC50 ([4]; A-427, A427 cell line, read-out: Lung cancer, EC50 (μM) A427): 0.114 µM
- EC50 ([4]; HCC78, HCC-78 cell line, read-out: Lung cancer, EC50 (μM) HCC-78): 0.19 µM
- EC50 ([4]; NCI-H460 cell line, read-out: Lung cancer, EC50 (μM) NCI-H460): 0.196 µM
- EC50 ([4]; NCI-H522 cell line, read-out: Lung cancer, EC50 (μM) NCI-H522): 0.079 µM
- EC50 ([5]; PA-1, PA1 cell line, read-out: Ovarian cancer, EC50 (μM) PA1): 0.12 µM
- EC50 ([5]; TOV112D, TOV-112D cell line, read-out: Ovarian cancer, EC50 (μM) TOV-112D): 0.108 µM
- EC50 ([5]; OV-90 cell line, read-out: Ovarian cancer, EC50 (μM) OV-90): 0.256 µM
- EC50 ([5]; OVCAR-3 cell line, read-out: Ovarian cancer, EC50 (μM) OVCAR-3): 0.067 µM
- EC50 ([6]; BXPC-3, BxPC3 cell line, read-out: Pancreatic cancer, EC50 BxPC3): 284 nM
- EC50 ([6]; CAPAN-1, Capan1 cell line, read-out: Pancreatic cancer, EC50 Capan1): 152 nM
- EC50 ([6]; Capan-2, Capan2 cell line, read-out: Pancreatic cancer, EC50 Capan2): 289 nM
- EC50 ([6]; MIA PaCa-2 cell line, read-out: Pancreatic cancer, EC50 MIA PaCa-2): 84 nM
- EC50 ([6]; PANC 05.04 cell line, read-out: Pancreatic cancer, EC50 PANC 05.04): 138 nM
- EC50 ([6]; PANC-1 cell line, read-out: Pancreatic cancer, EC50 PANC-1): 251 nM
- EC50 ([6]; UPAFII cell line, read-out: Pancreatic cancer, EC50 UPAFII): 83 nM
- EC50 ([7]; DU-145, read-out: Prostate cancer EC50 Du-145): 208 nM
- EC50 ([7]; PC-3, PC3 cell line, inhibition of cancer cell proliferation, read-out: Prostate cancer EC50 PC3): 159 nM
- EC50 ([7]; 22Rv1 cell line, inhibition of cancer cell proliferation, read-out: Prostate cancer EC50 22Rv1): 113 nM
- EC50 ([7]; LNCap clone FGC cell line, inhibition of cancer cell proliferation, read-out: Prostate cancer EC50 LNCap clone FGC): 305 nM
- EC50 ([7]; VCaP (Sigma) cell line, inhibition of cancer cell proliferation, read-out: Prostate cancer EC50 VCaP (Sigma)): 333 nM
SMILES: CN1CCN(c2cc(C(=O)Nc3cc4cc(-c5cnn(C)c5N)ccc4cn3)ccn2)CC1 [Compound 75]
- EC50 (all 50 cell lines): 167 nM
